Read-outs that look alike come from different tables or passages of the source. Non-standard residues stand in square brackets, D forms with d. Residues, ends and D or L forms follow the SMILES beside them. dPhe(4-Cl) = N[C@H](Cc1ccc(Cl)cc1)C(=O)O; d2Nal = N[C@H](Cc1ccc2ccccc2c1)C(=O)O; dCit = NC(=O)NCCC[C@@H](N)C(=O)O; d3Pal = N[C@H](Cc1cccnc1)C(=O)O
Assays:
[1] = tested on: patient with systemic sclerosis; conditions: Cyclophosphamide trial, literature, cited from earlier work
[2] = tested on: patient with systemic lupus erythematosus; test: Previous therapies for pain in extremities of the lupus patient; type: in vivo, human; conditions: previous therapies before degarelix
Protocol: Due to their painful condition, they have been followed up by a pain clinic. They were offered a tricyclic antidepressant, amitriptyline 25 mg in March 2014 for their painful condition.

[3] = tested on: patient with lithium induced psoriasis; conditions: 15 patients with psoriasis taking lithium, pretreatment, literature; cited from earlier work
[4] = tested on: patient with seropositive rheumatoid arthritis; test: Example treatment of RA using oral GnRH antagonists (DAS); type: in vivo, human
Protocol: • person with seropositive rheumatoid arthritis with disease duration of 10 years. • Fulfills ACR 2010 classification criteria for rheumatoid arthritis. Experimental Treatment • Is offered experimental GnRH antagonist therapy, Elagolix 550 mg daily for 12 weeks.
• person with seropositive rheumatoid arthritis with disease duration of 10 years. • Fulfills ACR 2010 classification criteria for rheumatoid arthritis. Experimental Treatment • Is offered experimental GnRH antagonist therapy, Relugolix 250 mg daily for 12 weeks.
• person with seropositive rheumatoid arthritis with disease duration of 20 years. • Fulfills ACR 2010 classification criteria for rheumatoid arthritis. Experimental Treatment • Treated with a spiroindoline derivative as a GnRH antagonist orally 200 mg daily for 12 weeks.

[5] = tested on: patient with spondyloarthritis; test: Example treatment of spondyloarthritis using Relugolix; type: in vivo, human
Protocol: • person with spondyloarthritis with disease duration of 5 years. Experimental Treatment • Is offered experimental GnRH antagonist therapy, Relugolix 400 mg daily for 12 weeks. Assessment of Response at 4 Months • Disease activity in ankylosing spondylitis/spondyloarthritis is measured by the BASDAI score. Their BASDAI is 5 at baseline.

[6] = tested on: patient with ankylosing spondylitis; test: Treatment of ankylosing spondylitis patient (BASDAI, laboratory variables); type: in vivo, human; conditions: AS patient
Source text: Diagnosed with ankylosing spondylitis in 1984, HLAB27 positive, with repeated iridocyclitis. Used non-steroidal anti-inflammatory drugs previously. They were offered the TNF-alpha inhibitor Golilimumab in 2010. Their disease activity score was 8.9 in October 2010 (see below for explanation of disease activity score) on initiating Golilimumab; by the June 2012 this score had reduced to 6.6, but by May 2013 the effect had worn off and their score was 7.6. May 2013, they initiated Enbrel treatment, but their disease activity increased from 7.6 to 8.3. Due to their poor response to TNF-alpha therapy, they were offered the GnRH antagonist Degarelix in September 2014.
Disease activity in ankylosing spondylitis is measured by the BASDAI (Bath Ankylosing Spondylitis Disease Activity Index1), has been extensively validated in clinical trials, 2, 3 and is one of the most commonly used outcome measures in clinical trials. This is a componsite index that evaluates fatigue, axial and peripheral pain, stiffness and enthesopathy. Their BASDAI was at 8.7 at baseline. In September 2014 they received their first dose of Degarelix 240 mg sc. By 2 weeks, their BASDAI had reduced to 6.8, and by 6 weeks it had reduced to 5.8. This is the lowest BASDAI score they have ever had since we first started using this method of assessment 4 years ago in 2010. Their morning stiffness lasted 4 hours at baseline, by 6 weeks their morning stiffness had reduced to 2 hours. They had their second dose of Degarelix 80 mg s.c in October 2014. Lumbar flexion and maximum arm abduction were increased after 6 weeks of treatment.
Response to therapy in clinical practice is defined as improvement of 2 units or 50% on a 0-10 scale of the BASDAI, and expert opinion that the treatment should be continued. Their reduction by 6 weeks was 2.9 units, and 7.1 units with an 82% BASDAI score improvement by 9 weeks, and we shall continue treatment. A BASDAI 50% improvement is defined as a major clinical response. […] For comparison, approximately 50-60% of patients achieve a BASDAI 50 by 12 weeks on TNF inhibitors (4). Their ESR has decreased from 46 mm to 23 mm, which is their lowest ESR reading in 19 years. […] By 9 weeks of GnRH antagonist therapy, their kidney function has normalized, and fasting glucose reduced from 7.4 to 6.5 mmol/L. By 3 months, the effect on their ankylosing spondylitis remained, creatinine was at 98 umol/L, with a glomerular filtration rate of 66 ml/min/1.73 m2 in December 2014.

patient with colitis = conditions: week 2 after an infliximab infusion, literature; cited from earlier work
[7] = tested on: patient with seropositive rheumatoid arthritis; test: Treatment of rheumatoid arthritis using Cetrorelix; type: in vivo, human; conditions: RA patient
Protocol: • person with seropositive rheumatoid arthritis with disease duration of 10 years. • Fulfilled ACR 2010 classification criteria for rheumatoid arthritis. Experimental Treatment • Had tried all therapies available previously without effect. • Offered experimental GnRH antagonist therapy, Cetrorelix in 0.5 mg sc daily in October 2014, then 0.75 mg sc daily in December 2014.

mice = test: Animal study of preventing age related inflammation; type: in vivo; conditions: 0.5 mg/kg daily with or without gonadal hormone replacement, vs placebo
Protocol: An animal study is conducted with 40 fertile female mice aged approximately 6-20 months in a control group (group 1) receiving placebo, 40 age and sex matched mice receiving a drug that reduces the activity of GnRH (group 2), such as Cetrorelix 0.5 mg/kg daily, and 40 age and sex matched mice receiving the same GnRH inhibitor as group 2, but with the additional replacement of gonadal hormone (oestrogen) to age adjusted pre-chosen levels. All mice are followed prospectively, and evaluated for systemic inflammation markers, atherosclerosis, osteoporosis, LDL, and age at death. The same three interventions and assessments are carried out in three groups of male mice with 40 male mice in each group, aged approximately 6-20 months, replacing the gonadal hormone testosterone to pre-chosen levels in group 3. Mice treated with a drug that reduces the activity of GnRH, such as Cetrorelix 0.5 mg/kg daily with or without the replacement of gonadal hormone (preferably with) reach a higher age at death compared with mice in the placebo groups. These mice also show less atherosclerosis, osteoporosis and systemic inflammation than mice in the placebo groups.

[8] = tested on: patients with active longstanding RA; test: Double-blinded randomised study of cetrorelix vs placebo in RA (NCT00667758), serum P1NP; type: in vivo, human
Protocol: In this double-blinded, single-site study in Norway (ClinicalTrials.gov NCT00667758), 99 patients with active longstanding RA, were randomised to predefined intention-to-treat populations using computer-generated allocation (1:1) in dynamic blocks stratified for sex. Patients were assigned to subcutaneous cetrorelix (n=48) (5 mg days 1-2, 3 mg days 3-5) or placebo (n=51). P1NP was measured on day 10. We investigated serum P1NP between groups, a predefined secondary endpoint. Detailed efficacy and safety data are presented separately.

[9] = tested on: patient with osteoarthritis of both knees; test: Intra-articular GnRH inhibiting treatment in osteoarthritis; type: in vivo, human; conditions: intra-articular 1 mg into both knees, 2 week post injection
Source text: • person with osteoarthritis of both knees diagnosed by x-ray 10 years ago • Has had synovitis secondary to osteoarthritis in both knees for the last month, confirmed by synovitis on ultrasound. Experimental Treatment • In order to treat the secondary inflammation as a result of their knee osteoarthritis, they are offered intra-articular GnRH antagonist treatment, for example Cetrorelix lmg injected into both knees. Subcutaneous Cetrorelix for injection can be used. Assessment of Response • Before and 2 week post injection ultrasound images are taken to show a decrease in synovitis in the knee joint.

[10] = tested on: patients with rheumatoid arthritis; conditions: AGRA study, 5 days, Kass et al. 2014; cited from earlier work

## O=P1(N(CCCl)CCCl)NCCCO1 (stereo not drawn) [Cyclophosphamide]
[1]; over a period of 12 months
  digital ulcers, average: 9 ulcers
[1]; start
  digital ulcers, average: 7 ulcers

## CC(C)C[C@H](CN)CC(=O)O [pregabalin]
[2]
  effect on pain in extremities: no effect

## CN(Cc1cnc2nc(N)nc(N)c2n1)c1ccc(C(=O)N[C@@H](CCC(=O)O)C(=O)O)cc1 [methotrexate]
[2]
  effect on pain in extremities: not effective

## O[C@H]1[C@H](O)[C@@H](O)[C@H](O)[C@@H](O)[C@H]1O [inositol]
[3]
  median PASI score: 4.9

## CONC(=O)Nc1ccc(-c2sc3c(c2CN(C)C)c(=O)n(-c2ccc(OC)nn2)c(=O)n3Cc2c(F)cccc2F)cc1 [Relugolix]
[4]; Relugolix 250 mg daily for 12 weeks, assessment at 4 months
  Eular response: Good Eular Response
[4]; Relugolix 250 mg daily for 12 weeks, assessment at 4 months (remission)
  Disease activity score (DAS): 2.5
[4]; before Relugolix
  Disease activity score (DAS): 3.5
[5]; Relugolix 400 mg daily, at 12 weeks (remission)
  BASDAI: 1.2
[5]; baseline
  BASDAI: 5

## Golilimumab: TNF-alpha inhibitor
[6]; June 2012 on Golilimumab
  disease activity score (BASDAI): 6.6
[6]; May 2013 on Golilimumab, effect worn off
  disease activity score (BASDAI): 7.6
[6]; October 2010, on initiating Golilimumab
  disease activity score (BASDAI): 8.9

## CN(C)CCC=C1c2ccccc2CCc2ccccc21 [amitriptyline]
[2]
  effect on pain in extremities: no effect

## infliximab: anti-tumour necrosis factor-α
Patient with colitis
  Fecal calprotectin concentration: decreases significantly

## COc1c(C)c2c(c(O)c1C/C=C(\C)CCC(=O)OCCN1CCOCC1)C(=O)OC2 [mycophenolate mofetil]
[2]
  effect on pain in extremities: not effective

## Enbrel
[6]; May 2013, on initiating Enbrel
  disease activity (BASDAI): 7.6
[6]; after Enbrel treatment
  disease activity (BASDAI): 8.3

## CC(=O)N[C@H](Cc1ccc2ccccc2c1)C(=O)N[C@H](Cc1ccc(Cl)cc1)C(=O)N[C@H](Cc1cccnc1)C(=O)N[C@@H](CO)C(=O)N[C@@H](Cc1ccc(O)cc1)C(=O)N[C@H](CCCNC(N)=O)C(=O)N[C@@H](CC(C)C)C(=O)N[C@@H](CCCNC(=N)N)C(=O)N1CCC[C@H]1C(=O)N[C@H](C)C(N)=O [Cetrorelix] (Ac-[d2Nal][dPhe(4-Cl)][d3Pal]SY[dCit]LRP[dA]-NH2)
[7]; at 12 weeks
  CRP: 18 mg/L
  ESR: 28 mm
  rheumatoid factor level: 111 kIU/L
[7]; at 12 weeks, 0.5 then 0.75 mg sc daily
  Disease activity score (DAS): 5.5
[7]; before Cetrorelix
  CRP: 41 mg/L
  Disease activity score (DAS): 6.1
  ESR: 35 mm
  rheumatoid factor level: 137 kIU/L
mice
  age at death: higher
  atherosclerosis, osteoporosis and systemic inflammation: less
[8]; by day 10, 95% CI −6.62, −0.29, p=0.033
  P1NP mean difference vs placebo: -3.45 µg/L
[8]; cetrorelix group (n=48), 5 mg days 1-2, 3 mg days 3-5, by day 10
  P1NP change: -4.21 µg/L
[8]; cetrorelix vs placebo
  disease activity markers and TNF-α (log pg/mL): significant reductions
[9]
  synovitis in the knee joint on ultrasound: decrease
[10]
  TNF-α: possible reduction
  primary end-point with regard to clinical response: did not meet the primary end-point

## Cn1cnc([N+](=O)[O-])c1Sc1ncnc2nc[nH]c12 [azathioprine]
[2]
  effect on pain in extremities: not effective

## NCC1(CC(=O)O)CCCCC1 [gabapentin]
[2]
  effect on pain in extremities: no effect

— patent US10821152B2, “Methods, agents and compositions for treatment of inflammatory conditions” (Betanien Hospital, priority 2014, dated 2020)
